Among the data in PubChem BioAssay (NCI) are TGI and GI50 values, retold here.

Common to all, as to assay: inhibition of tumour cell growth, NCI panel, 48 h
The subject of assay [1] is SK-OV-3 ovarian.
In assay [2] the test system is RPMI-8226 leukemia.
Assay [3] relates to SK-MEL-5 melanoma.
For assay [4], the system named is KM20L2 colon.
The test system of assay [5] is DMS 114 small cell lung.
Assay [6] deals with A549 NSCLC.
Assay [7] relates to NCI-H460 lung.
The subject of assay [8] is HCT-15 colon.
For assay [9], the system named is IGROV1 ovarian.
Assay [10] relates to HS 578T breast.

Values joined by “and” are separate entries in the source; they are usually repeats but may differ in a detail not shown here. Identical values can stand only once.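 These data come from cells grown in 96-well plates and exposed to compound for 48 hours at five concentrations. At the GI50, growth is halved. TGI denotes the concentration required for complete inhibition of growth.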

With `CSc1nc2nn(Cc3ccccc3)cc2c(=O)[nH]1`, the TGI in assay [1], in assay [2], in assay [3], in assay [4], in assay [5] and in assay [6] was over 100 µM in each case. Besides, the TGI in assay [7], in [8] and in assay [9] was over 100 µM each time.
Turning to `Cc1[nH]c2ccccc2c1CC/C(=N\Nc1ccccc1)c1ccccc1`, the TGI in assay [1], in [2], in assay [3], in assay [4], in [6] and in assay [7] was over 100 µM throughout. Also, the TGI in assay [8] and in assay [9] was over 100 µM each time.
As to `C[C@@H](NS(=O)(=O)c1ccc(NC(=O)c2ccccc2)cc1)C(=O)O`, the TGI in assay [1], in [2], in assay [3], in assay [4], in assay [6] and in assay [7] was over 100 µM in each case. In addition, the TGI in [8] and in [9] was over 100 µM each time.
In the case of `OCC[N+]12CCCN1CCC2`, the TGI in assay [1], in [3], in assay [4], in [5], in [6] and in assay [7] was over 100 µM each time. Also, the TGI in assay [8] and in [9] was over 100 µM each time.
`CCOC(=O)C(CCC(N)=O)(CCC(=O)OC)C(=O)OCC`: the TGI in assay [1], in [2], in assay [4], in assay [5], in [6] and in assay [7] was over 100 µM in each case. The compound further came in with a TGI in assay [9] of over 100 µM.
On to `COC(=O)c1ncc2c(=O)[nH]c3ccccc3c2c1C(=O)OC`, for which the TGI in assay [2] is over 100 µM; in [3], over 100 µM; in [4] it was over 100 µM; in assay [5], over 100 µM; in assay [6], over 100 µM; in assay [7], 47.3 µM. Moreover, the TGI in assay [8] and in assay [9] was over 100 µM in each case.
Regarding `O=C(/C=C/c1ccccc1O)c1ccc([N+](=O)[O-])cc1`, the TGI in assay [1] was 70.7 µM; in [3] it was 49.8 µM; in assay [4], 39.7 µM; in assay [5], 24.7 µM; in assay [6], 48.9 µM; in assay [7], 50.5 µM. Besides, the TGI in assay [8] was 46.8 µM; in assay [9] it was 26.3 µM.
For `CC(C)(C)C(=O)Nc1cccc2oc(-c3ccccc3)cc12`, the TGI in assay [1], in assay [2], in assay [4], in [5], in assay [6] and in [7] was over 100 µM throughout. In addition, the TGI in assay [8] and in assay [9] was over 100 µM in each case.
For the compound `CC(C)(C)c1cc(CCCCCCCC2(CCCCCCCc3cc(C(C)(C)C)cc(C(C)(C)C)c3)OC(COCCOCCCCCC#N)C(COCCOCCCCCC#N)O2)cc(C(C)(C)C)c1` (configuration not stated), the TGI in [1], in assay [3], in assay [4], in assay [5], in assay [6] and in [7] was over 100 µM throughout. The TGI in assay [8] and in assay [9] was over 100 µM each time.
For `Cc1ccc(/C=C(\NC(=O)c2ccccc2)c2nc3ccccc3[nH]2)cc1`, the TGI in [3] is 36.7 µM; in assay [4] it was over 100 µM; in assay [5] it was over 100 µM; in assay [6], over 100 µM; in assay [7], over 100 µM; in assay [8], over 100 µM. Besides, in [9], the TGI was over 100 µM.
On to `O=C(Cc1nc2ccccc2o1)C(=O)Nc1cccc(Cl)c1`, for which the TGI in [1], in assay [4], in [5], in assay [6], in assay [7] and in [8] was over 100 µM in each case. In assay [9], the TGI was over 100 µM.
With `NC1CCCCC1N.O=C1C=C/C(=C(/c2ccc(O)c(Br)c2)c2ccccc2S(=O)(=O)[O-])C=C1Br.O=C1C=C/C(=C(/c2ccc(O)c(Br)c2)c2ccccc2S(=O)(=O)[O-])C=C1Br.[Pt+4]`, the GI50 in assay [1] is 54.2 µM; in [2], 6.29 µM; in assay [3], 3.29 µM; in assay [4] it was 0.755 µM; in assay [6], 2.42 µM; in assay [7], 1.54 µM. In addition, the GI50 was 3.85 µM in assay [8] and 4.17 µM in assay [9]. Also, the TGI is over 100 µM in assay [1]; over 100 µM in assay [2]; 21.4 µM in assay [3]; over 100 µM in assay [4]; over 100 µM in assay [6]; over 100 µM in assay [7]. Also, the TGI in assay [8] and in assay [9] was over 100 µM throughout.
As for `c1ccncc1`, the TGI in [1], in [2], in assay [3], in assay [4], in assay [6] and in assay [7] was over 100 µM throughout. Besides, the TGI in [8] and in assay [9] was over 100 µM throughout.
Regarding `O=C(O)c1cc(=O)cc(C(=O)O)o1`, the GI50 in assay [1], in assay [2], in assay [3], in assay [10], in assay [6] and in [7] was over 100 µM in each case. The GI50 in [8] and in assay [9] was over 100 µM in each case. For the same compound, the TGI in assay [1], in assay [2], in assay [3], in assay [10], in assay [6] and in assay [7] was over 100 µM throughout. Besides, the TGI in assay [8] and in assay [9] was over 100 µM in each case.
Take `O=C1CC(c2ccccc2)Cc2nc3ccc(Br)cc3cc21` (configuration not stated): the GI50 was 0.694 µM in [1]; 2.92 µM in assay [2]; 0.342 µM in assay [3]; 0.408 µM in assay [10]; 0.378 µM in assay [6]; 0.339 µM in [7]. For the same compound, the GI50 in assay [8] was 0.476 µM; in assay [9] it was 0.428 µM. For the same compound, the TGI is over 100 µM in assay [1]; over 100 µM in assay [2]; 2.22 µM in assay [3]; over 94.5 µM in [10]; over 100 µM in [6]; 13.7 µM in assay [7]. In addition, the TGI in assay [8] and in [9] was over 100 µM in each case.
Turning to `COc1ccc(C2CC(c3ccc(Nc4ccnc5cc(Cl)ccc45)cc3)=NN2C=O)cc1` (configuration not stated), the GI50 in assay [1] was over 100 µM; in assay [2], 2.71 µM; in [3], 0.617 µM; in assay [10], over 100 µM; in assay [6] it was 50.3 µM; in [7], over 100 µM. In addition, the GI50 in assay [8] is 2.97 µM; in assay [9] it was 43.1 µM. Besides, the TGI in [1] was over 100 µM; in assay [2], 48.6 µM; in assay [3] it was 43.2 µM; in [10] it was over 100 µM; in [6], over 100 µM; in assay [7], over 100 µM. Further, the TGI in [8] and in assay [9] was over 100 µM in each case.
Take `COc1ccc2c3c1OC1C(OC)(OC)C=C[C@@]4(Br)[C@@H](C2)N(CC2CC2)CC[C@]314` (some centres not stated): the TGI in assay [1], in assay [2], in [3], in [10], in [6] and in [7] was over 100 µM throughout. In addition, the TGI in assay [8] and in assay [9] was over 100 µM each time.
On to `COc1cc([N+](=O)[O-])c(OC)cc1-c1nc2sc(C)cn2c1/C(N)=N/C(=N)N`, for which the GI50 in assay [1] was over 100 µM; in assay [2], 84.1 µM; in assay [3], 28.3 µM; in assay [10], 25.2 µM; in assay [6] it was 40.7 µM; in [7] it was 43.7 µM. The GI50 in assay [8] was over 100 µM; in assay [9] it was 32.9 µM. Besides, the TGI in [1] is over 100 µM; in assay [2], over 100 µM; in assay [3], over 100 µM; in assay [10], 89.2 µM; in assay [6], over 100 µM; in assay [7], over 100 µM. In addition, the TGI in assay [8] and in assay [9] was over 100 µM throughout.
Regarding `Cc1cnc2oc3ccc(O)cc3c2c1-c1ccccc1`, the GI50 in assay [1] is 25 µM; in assay [2], over 100 µM; in [3], 35.8 µM; in [10], 19.6 µM; in [6], over 100 µM; in assay [7], 19.7 µM. Also, the GI50 in assay [8] is 27.2 µM; in [9], 47 µM. Further, the TGI in assay [1] was 86.9 µM; in [2], over 100 µM; in assay [3], over 100 µM; in assay [10], 74.4 µM; in [6], over 100 µM; in assay [7] it was over 100 µM. For the same compound, the TGI in assay [8] and in assay [9] was over 100 µM throughout.
With `CCc1cnn2c(NCc3ccc[n+]([O-])c3)cc(N3CCCC[C@H]3CCO)nc12`, the GI50 was 0.0391 µM and 0.0338 µM in [1]; < 0.01 µM and 0.00668 µM in assay [2]; < 0.01 µM and 0.00469 µM in [3]; < 0.01 µM and 0.00236 µM in assay [10]; < 0.0163 µM and 0.00853 µM in assay [6]; < 0.01 µM and 0.00464 µM in assay [7]. The GI50 in assay [8] was 0.0351 µM and 0.0253 µM; in assay [9], < 0.01 µM and 0.0033 µM. In addition, the TGI was over 100 µM in assay [1]; 0.0244 µM and 0.0436 µM in assay [2]; 0.0237 µM and 0.207 µM in [3]; 0.00805 µM in assay [10]; over 10 µM in assay [6]; over 44.8 µM in assay [7]. Also, the values for the TGI in assay [8] and in assay [9] were over 35 µM and over 10 µM, respectively.
Regarding `COC(=O)c1ccc(/C=C(\c2ccc([N+](=O)[O-])o2)S(=O)(=O)c2ccc(NC(C)=O)cc2)o1`, the TGI in [1] turned out to be 38.2 µM; in assay [2], 3.03 µM; in assay [3], 13.5 µM; in assay [10], 6.34 µM; in assay [6] it was 34.1 µM; in assay [7] it was 53.9 µM. Moreover, the values for the TGI in assay [8] and in assay [9] were 6.83 µM and 28.4 µM, respectively.
On to `Cn1cc(C2=C(c3cn(-c4ccccc4)c4ccccc34)C(=O)NC2=O)c2ccccc21`, for which the GI50 in assay [1] is over 25 µM; in assay [2], 12.1 µM; in assay [3], 10.8 µM; in assay [10] it was over 14.6 µM; in [6], 11.8 µM; in assay [7] it was 17.7 µM. Further, the GI50 is 10.7 µM in assay [8] and 11.7 µM in assay [9]. Further, the TGI in assay [1], in [2], in assay [3], in [10], in [6] and in assay [7] was over 25 µM each time. Further, the TGI in [8] and in assay [9] was over 25 µM in each case.
As to `COc1ccc(CCN(CC(=O)N(CC(N)=O)C2CCC[C@@H]2OCc2ccccc2)C(=O)CN(C(=O)CN(CCc2ccc(Cl)cc2)C(=O)CN(C(=O)CN(C)Cc2ccccc2F)[C@H](C)C2CCCCC2)[C@H](C)C2CCCCC2)cc1OC` (some centres not stated), the GI50 was 2.5 µM in assay [1]; 1.19 µM in assay [2]; 1.7 µM in [3]; 7.26 µM in assay [10]; 1.59 µM in assay [6]; 1.94 µM in assay [7]. Further, the GI50 in assay [8] is 2.77 µM; in assay [9], 1.68 µM. Also, the TGI was over 50 µM in [1]; 3.28 µM in [2]; 8.62 µM in assay [3]; over 50 µM in assay [10]; over 50 µM in [6]; over 50 µM in assay [7]. Moreover, the TGI in assay [8] and in assay [9] was over 50 µM in each case.
Take `COCCOC1=CC(=O)c2c(O)ccc(O)c2C1=O`: the GI50 in [1] is 17.9 µM; in [2], 2.03 µM; in assay [6] it was 1.74 µM; in assay [7] it was 2.01 µM; in assay [8] it was 1.6 µM. For the same compound, the TGI in assay [1] was 31.7 µM; in assay [2] it was 8.86 µM and 5.06 µM; in [3], 0.3 µM and 0.295 µM; in [10], 6.88 µM; in assay [6], 4.15 µM and 3.78 µM; in assay [7], 3.11 µM and 4.2 µM. Also, the TGI is 2.62 µM and 3.38 µM in [8]; 3.11 µM and 2.97 µM in assay [9].
